# In PMC6263664 (CPT: Pharmacometrics & Systems Pharmacology, 2018):
# Where “and” joins values, the source holds several entries; their conditions need not be identical. Equal values may be shown once. Read-outs that look alike come from different tables or passages of the source. Marks after values point to notes of the source that are not given here.
# Assays:
# [1] = Updated stage 1 / stage 2 population pharmacokinetic analysis; type: in vivo, human; details: for ACS subjects (θ13) effect on Vc/F, Estimate ± SE / Evening dosing (AM/PM = 2) (θ10) effect on ka, Estimate ± SE / NVAF subjects (θ12) effect on Vc/F, Estimate ± SE: fractional change; for Vd/F: Vc/F (θ3) apparent volume of distribution of the central compartment, Estimate ± SE; for D_WTB (θ11) baseline body weight effect on Vc/F, Estimate ± SE: power coefficient
# [2] = type: in vivo, human
# [3] = cited from earlier work
# [4] = vs normal renal function, phase I; cited from earlier work
# [5] = cited from earlier work; remark: listed apart in the source
# [6] = system: P‐glycoprotein (P‐gp); details: cited from earlier work
# [7] = system: breast cancer resistance protein; details: cited from earlier work
# [8] = system: cytochrome P450 3A4 (CYP3A4); details: cited from earlier work
# [9] = relative to the typical 70‐kg NVAF subject
# [10] = fractional change, stage 2 final ad hoc model
# [11] = power coefficient, stage 2 final ad hoc model
# [12] = relative to non‐Asian typical patients with NVAF
structure (smiles),measurement,setting,value
COc1ccc(-n2nc(C(N)=O)c3c2C(=O)N(c2ccc(N4CCCCC4=O)cc2)CC3)cc1 [apixaban],"predicted increase in AUCss, moderate renal impairment","[1]; NVAF, cCrCL 40 mL/minute, compared with normal renal function",28%
same,"predicted increase in AUCss, mild renal impairment","[1]; NVAF, cCrCL = 65 mL/minute, compared with normal renal function",9%
same,increase in exposure with strong/moderate inhibitors of both CYP3A4 and P‐gp,[1]; PPK estimate,~ 17%
same,"CLR/F (θ2) apparent renal clearance, Estimate ± SE","[1]; cCrCL reference 80 mL/minute, stage 2 final model",1.57 ± 0.117 L/h
same,"reduced CL/F, ACS",[1]; compared with healthy subjects,21.5%
same,"reduced CL/F, Asian race",[1]; compared with non‐Asian subjects,11.9%
same,"ACS subjects (θ13) effect on Vc/F, Estimate ± SE",[1]; stage 2 final model,−0.180 ± 0.0446
same,"Evening dosing (AM/PM = 2) (θ10) effect on ka, Estimate ± SE",[1]; stage 2 final model,−0.433 ± 0.0236
same,"NVAF subjects (θ12) effect on Vc/F, Estimate ± SE",[1]; stage 2 final model,−0.0405 ± 0.0491
same,"ACS subjects (θ13) effect on Vc/F, Estimate ± SE",[1]; updated stage 1 final model,−0.177 ± 0.0449
same,"Evening dosing (AM/PM = 2) (θ10) effect on ka, Estimate ± SE",[1]; updated stage 1 final model,−0.434 ± 0.0234
same,"NVAF subjects (θ12) effect on Vc/F, Estimate ± SE",[1]; updated stage 1 final model,−0.0217 ± 0.0501
same,effect of strong CYP3A4/P‐gp inducers on CL/F,"[1]; full stage 2 model, not included in final model",very small and poorly estimated
same,CL renal,"[1]; human, plasma, oral",26.2 mL/min
same,Vd/F,"[1]; human, plasma, oral, stage 2 final model",30 ± 0.971 L
same,Vd/F,"[1]; human, plasma, oral, updated stage 1 final model",29.8 ± 0.981 L
same,impact of Asian race on exposure,[1]; in vivo,< 15%
same,"D_WTB (θ11) baseline body weight effect on Vc/F, Estimate ± SE",[1]; stage 2 final model,0.790 ± 0.0645
same,"D_WTB (θ11) baseline body weight effect on Vc/F, Estimate ± SE",[1]; updated stage 1 final model,0.806 ± 0.0649
same,decrease in ka with administration in the evening,[1]; relative to administration in the morning or afternoon,43%
same,increase in Vc/F for a 90‐kg subject,[1]; [9],22%
same,reduction in Vc/F for a 50‐kg subject,[1]; [9],23.3%
same,"Logit for reduction in Frel at 50 mg (I50) (θ9), Estimate ± SE",[1]; stage 2 final model,−0.322 ± 0.0512
same,"Shape parameter for Frel (γ) (θ8), Estimate ± SE",[1]; stage 2 final model,0.857 ± 0.0684
same,"Vp/F (θ5) apparent volume of distribution of the peripheral compartment, Estimate ± SE",[1]; stage 2 final model,27.0 ± 2.03 L
same,"ka (θ1) absorption rate constant, Estimate ± SE",[1]; stage 2 final model,0.473 ± 0.0208 h⁻¹
same,"Logit for reduction in Frel at 50 mg (I50) (θ9), Estimate ± SE",[1]; updated stage 1 final model,−0.321 ± 0.0512
same,"Shape parameter for Frel (γ) (θ8), Estimate ± SE",[1]; updated stage 1 final model,0.853 ± 0.0693
same,"Vp/F (θ5) apparent volume of distribution of the peripheral compartment, Estimate ± SE",[1]; updated stage 1 final model,26.7 ± 1.89 L
same,"ka (θ1) absorption rate constant, Estimate ± SE",[1]; updated stage 1 final model,0.471 ± 0.0204 h⁻¹
same,change in exposure due to individual covariate (demographic) effects,"[1]; vs the reference NVAF subject, except severe renal impairment",< 25% and ≤ 25%
same,"ACS subjects (θ13) effect on Vc/F, Estimate ± SE",[2]; [10],−0.184 ± 0.0463
same,"Evening dosing (AM/PM = 2) (θ10) effect on ka, Estimate ± SE",[2]; [10],−0.436 ± 0.0237
same,"Female (θ15) effect on CLNR/F, Estimate ± SE",[2]; [10],−0.227 ± 0.0269
same,"NVAF subjects (θ12) effect on Vc/F, Estimate ± SE",[2]; [10],−0.0530 ± 0.0508
same,CL renal,"[2]; human, plasma, oral",26.7 mL/min
same,Vd/F,"[2]; human, plasma, oral",30 ± 1.04 L
same,"Age (θ14) effect on CLNR/F, Estimate ± SE",[2]; [11],−0.414 ± 0.0727
same,"D_WTB (θ11) baseline body weight effect on Vc/F, Estimate ± SE",[2]; [11],0.792 ± 0.0648
same,CL/F higher in Korean subjects,[2]; relative to non‐Asian subjects,3.3%
same,CL/F lower in Japanese subjects,[2]; relative to non‐Asian subjects,15.1%
same,CL/F lower in other Asian subjects,[2]; relative to non‐Asian subjects,4.3%
same,"change in daily AUCss, Japanese",[2]; [12],17.7%
same,"change in daily AUCss, Korean",[2]; [12],−3.2%
same,"change in daily AUCss, other Asian races",[2]; [12],4.5%
same,"change in population mean total CL/F, Japanese",[2]; [12],−15.1%
same,"change in population mean total CL/F, Korean",[2]; [12],3.3%
same,"change in population mean total CL/F, other Asian races",[2]; [12],−4.3%
same,CL/F apparent total clearance,"[2]; simple sum of CLR/F and CLNR/F, stage 2 final ad hoc model",3.62 ^a L/hour
same,"Logit for reduction in Frel at 50 mg (I50) (θ9), Estimate ± SE",[2]; stage 2 final ad hoc model,−0.327 ± 0.0519
same,"Shape parameter for Frel (γ) (θ8), Estimate ± SE",[2]; stage 2 final ad hoc model,0.875 ± 0.0779
same,"Vp/F (θ5) apparent volume of distribution of the peripheral compartment, Estimate ± SE",[2]; stage 2 final ad hoc model,27.3 ± 2.78 L
same,"ka (θ1) absorption rate constant, Estimate ± SE",[2]; stage 2 final ad hoc model,0.471 ± 0.0218 h⁻¹
same,oral bioavailability,[3],~ 50%
same,steady‐state volume of distribution,[3],~ 21 liters
same,time dependency of pharmacokinetics,[3],no time dependency
same,total clearance,[3],3.3 L/h
same,Renal clearance as share of total systemic clearance,"[3]; following intravenous administration, healthy subjects",~ 27%
same,half‐life,[3]; following oral administration,~ 12 hours
same,dose dependence of exposure,[3]; therapeutic dose range (2.5–10 mg),dose‐proportional increase in exposure
same,"higher estimated AUCINF, mild renal impairment",[4],~ 16%
same,"higher estimated AUCINF, moderate renal impairment",[4],~29%
same,"higher estimated AUCINF, severe renal impairment",[4],~44%
same,increase in AUC when co‐administered with diltiazem,"[5]; diltiazem, a moderate CYP3A4/P‐gp inhibitor",40%
same,increase in AUC when co‐administered with ketoconazole,"[5]; ketoconazole, a strong CYP3A4/P‐gp inhibitor",99%
same,substrate status,[6],substrate
same,substrate status,[7],substrate
same,pathway of plasma elimination,[8],metabolism primarily by cytochrome P450 3A4 (CYP3A4)
